# Test results published in patent publication US20230338349A1, “LOW DOSE REGIMEN AND FORMULATION OF A 5-METHYL-1,2,4-OXADIAZOL-3-YL COMPOUND” (Eli Lilly and Company, priority 2020, published 2023).
# Experiment: Plasma concentration of compound of Formula I in the PET occupancy study
# Type: in vivo
# Details: human, healthy subjects; for concentration at 0.5 h: approx. 0.5 h; for concentration at 1 h: approx. 1 h; for concentration at 2 h: approx. 2 h; for concentration at 3 h: approx. 3 h; for concentration at 4 h: approx. 4 h; for concentration at 5 h: approx. 5 h; for concentration at 6 h: approx. 6 h; for concentration at 8 h: approx. 8 h; for concentration at 12 h: approx. 12 h; for concentration at 24 h: approx. 24 h
# Experimental: Healthy subjects are assigned to 1 of 4 cohorts with 4 subjects in each cohort completing the study. All subjects undergo one baseline PET scan and two post-dose PET scans. A baseline PET scan is performed from up to approximately 14 days before dosing of the compound of Formula I. Overall, each subject receives a single dose of the compound of Formula I and 3 administrations of the [^18F]LSN3316612 PET tracer. Dosing of the compound of Formula I occurs after completion of the baseline PET scan. Scans are conducted at approximately 2 and 24 hours post-dose for the 0.25 mg and 5 mg doses of the compound of Formula I, and at approximately 2 and 24 hours or 30 and 54 hours post-dose for the 1 mg dose of the compound of Formula I. Dynamic PET data of the brain are acquired over 120 min immediately following tracer injection. EO is summarized by the compound of Formula I dose and approximate scanning time.
# The compound of Formula I is administered orally in capsule formulation for doses≥3 mg. For doses lower than 3 mg, the compound of Formula I is weighed into a suitable container and dissolved in an appropriate volume of degassed Sprite® or diluent.
# Arterial blood samples are collected from all subjects during each PET scan to measure radioactivity to provide input for the PET tracer kinetic analysis. Venous blood samples are collected following dosing of compound of Formula I to measure plasma concentrations of compound of Formula I using a validated liquid chromatography with tandem mass spectrometry assay.
structure (smiles),measurement,setting,value
"CC(=O)Nc1nc(F)c(CN2CC[C@H](OCc3noc(C)n3)C[C@@H]2C)s1 [compound of Formula I, N-[4-fluoro-5-[[(2S,4S)-2-methyl-4-[(5-methyl-1,2,4-oxadiazol-3-yl)methoxy]-1-piperidyl]methyl]thiazol-2-yl]acetamide]",concentration at 0.5 h,single oral dose 0.25 mg,0.934 ng/mL
same,concentration at 1 h,single oral dose 0.25 mg,0.595 ng/mL
same,concentration at 2 h,single oral dose 0.25 mg,0.373 ng/mL
same,concentration at 3 h,single oral dose 0.25 mg,0.391 ng/mL
same,concentration at 4 h,single oral dose 0.25 mg,0.367 ng/mL
same,concentration at 5 h,single oral dose 0.25 mg,0.39 ng/mL
same,concentration at 6 h,single oral dose 0.25 mg,0.357 ng/mL
same,concentration at 8 h,single oral dose 0.25 mg,0.294 ng/mL
same,concentration at 12 h,single oral dose 0.25 mg,0.213 ng/mL
same,concentration at 24 h,single oral dose 0.25 mg,0.107 ng/mL
same,concentration at 0.5 h,single oral dose 1 mg,6.29 ng/mL
same,concentration at 1 h,single oral dose 1 mg,6.24 ng/mL
same,concentration at 2 h,single oral dose 1 mg,5.75 ng/mL
same,concentration at 3 h,single oral dose 1 mg,4.97 ng/mL
same,concentration at 4 h,single oral dose 1 mg,4.28 ng/mL
same,concentration at 5 h,single oral dose 1 mg,3.87 ng/mL
same,concentration at 6 h,single oral dose 1 mg,3.08 ng/mL
same,concentration at 8 h,single oral dose 1 mg,2.45 ng/mL
same,concentration at 12 h,single oral dose 1 mg,1.42 ng/mL
same,concentration at 24 h,single oral dose 1 mg,0.412 ng/mL
same,concentration at 30 h,"single oral dose 1 mg, approx. 30 h",0.222 ng/mL
same,concentration at 54 h,"single oral dose 1 mg, approx. 54 h",0.0735 ng/mL
same,concentration at 0.5 h,single oral dose 5 mg,32.4 ng/mL
same,concentration at 1 h,single oral dose 5 mg,30.7 ng/mL
same,concentration at 2 h,single oral dose 5 mg,36 ng/mL
same,concentration at 3 h,single oral dose 5 mg,31.9 ng/mL
same,concentration at 4 h,single oral dose 5 mg,31.5 ng/mL
same,concentration at 5 h,single oral dose 5 mg,30.6 ng/mL
same,concentration at 6 h,single oral dose 5 mg,25.3 ng/mL
same,concentration at 8 h,single oral dose 5 mg,17.8 ng/mL
same,concentration at 12 h,single oral dose 5 mg,12.5 ng/mL
same,concentration at 24 h,single oral dose 5 mg,3.07 ng/mL
